Laboratory results reported in US20050124647A1, “Tricyclic derivatives of indole with antiangiogenic activity” (Sigma-Tau Industrie Farmaceutiche Riunite S.p.A., priority 2000, published 2005).
Read-outs that look alike come from different tables or passages of the source.

What was measured:
MCF-7/DX = test: Antiproliferative activity vs resistant cell MCF-7/DX; format: cell-based; conditions: Homo sapiens, MCF7/DX; resistant cell (doxorubicin-resistant, P-glycoprotein overexpressing); read-out: IC50 +/− SD, MCF-7/DX
Experimental: (§1) The test used was the sulforodamine B test used for screening anticancer products at the National Cancer Institute (Skehan, 1990). The molecules at scalar concentrations over a range from 500 μM to 0.97 μM, were incubated in parallel with different human cell lines for 24 hours. After removing the products, cell survival was investigated after another 48 hours with the NCI test. The antiproliferative capacity of the compounds was quantified in terms of IC50±SD (concentration of the molecule that inhibits 50% of cell survival) processed using a curve fitting program (De Lean et al., 1978).
(§2) The cytotoxicity of the molecules on tumour lines resistant to chemosensitising activity was assessed on various tumour cell lines overexpressing P-glycoprotein and resistant to doxorubicin (100-fold) and cross-resistant to daunorubicin, actinomycin D, mitoxantrone, vincristine, vinblastine, taxol, colchicine, and etoposide. The cytotoxicity of the products was assessed using the same test adopted for the sensitive tumour cells.

LoVo/DX = test: Antiproliferative activity vs resistant cell LoVo/DX; format: cell-based; conditions: Homo sapiens, resistant cell (doxorubicin-resistant, P-glycoprotein overexpressing), read-out: IC50 +/− SD, LoVo/DX
Experimental: as §1, §2

BMEC [1] = test: Cytotoxicity on endothelial cells (BMEC); format: cell-based, bovine
BMEC [2] = test: Chemotactic assay with the Boyden chamber on BMEC; format: cell-based, bovine
Experimental: For the antiangiogenic activity the chemotactic assay with the Boyden chamber was performed (Werner F., Goodwin R. H. and Leonard E. J., Journal of Immunological Methods 1980; 33, 239-247), using both bovine aortal endothelial cell (BAEC) cultures and bovine medullary endothelial cell (BMEC) cultures. The assays were performed at IC0 (maximum non-cytotoxic concentration) and the results expressed as % inhibition of migration across a porous filter in response to a chemotactic stimulus (1% bovine serum in DMEM culture medium). This finding was obtained by direct cell count under the optical microscope, and the percentage migration inhibition was calculated according to the formula (T−C/C)×100, where T=mean number of cells migrating in the sample and C=mean number of cells migrating in the control. The control consisted of cells which migrated towards the serum, not treated with the study molecules, and included in every chemotaxis experiment. The data refer to the readings of 5 microscopic fields/well in 4 independent chemotaxis wells per sample.

| SMILES | IC50 (MCF-7/DX) [µM] | IC50 (LoVo/DX) [µM] | IC0 (maximum non-cytotoxic concentration) (BMEC [1]) [µM] | activity on chemotaxis of endothelial cells (in words) (BMEC [2]) | activity on chemotaxis of endothelial cells (in words) (BMEC [2]; listed as ST 1381) |
| --- | --- | --- | --- | --- | --- |
| c1ccc2c(C3CCCCc4[nH]c5ccccc5c43)c[nH]c2c1 (racemic) [ST1621, 5-(indol-3-yl)-indo(2,3a]-cycloheptan.] | 68.3 | 23.8 | 0.1 |  |  |
| c1ccc2c(C3CCCc4[nH]c5ccccc5c43)c[nH]c2c1 (racemic) [ST1729, 4-(1H-indol-3-yl)-tetrahydro-1H-carbazole] |  |  | 25 |  |  |
| c1[nH]c2cc3c(cc2c1C1CCCCc2c1[nH]c1cc4c(cc21)OCO4)OCO3 (racemic) [ST1749, 1-(5″,6″-methylendioxy-indol-3-yl)-5′,6′-methylendioxy-indo[2,3-a]-cycloeptane] |  |  | 100 |  |  |
| c1[nH]c2cc3c(cc2c1C1CCCc2c1[nH]c1cc4c(cc21)OCO4)OCO3 (racemic) [ST1751, 1-(5′,6′-methylendioxy-1H-indol-3-yl)-6,7-methylendioxy-tetrahydro-1H-carbazole] | 58.6 |  |  |  |  |
| Oc1ccc2[nH]cc(C3CCCCc4c3[nH]c3ccc(O)cc43)c2c1 (racemic) [ST1783, 1-(5″-hydroxy-1H-indol-3-yl)-5′-hydroxy-indo[2,3a]-cycloheptan] | 39 |  | 10 |  |  |

Now from value to compound, other results behind:

| IC50 (MCF-7/DX) [µM] | IC50 (LoVo/DX) [µM] | SMILES | IC0 (maximum non-cytotoxic concentration) (BMEC [1]) [µM] | activity on chemotaxis of endothelial cells (in words) (BMEC [2]) | activity on chemotaxis of endothelial cells (in words) (BMEC [2]; listed as ST 1381) |
| --- | --- | --- | --- | --- | --- |
| 26.9 | 26.3 | CC1(C)OCC(C2c3c([nH]c4ccccc34)C(c3c[nH]c4ccccc34)C3OC(C)(C)OC32)O1 (racemic) [ST1372, 1-(indol-3-yl)-2,3-O-isopropylidene-4-(2,3-O-isopropylidene-ethyl)-tetra-hydrocarbazole] |  |  |  |
| 28.4 | 25.2 | c1ccc2c(C3CCCCc4c3[nH]c3ccccc43)c[nH]c2c1 (racemic) [ST1381, 1-(indol-3-yl)-indo[2,3a]-cycloheptan.] | 30 | active | better anti-chemiotactic compound |
| 24.8 | 17 | c1ccc(COc2ccc3[nH]cc(C4CCCCc5c4[nH]c4ccc(OCc6ccccc6)cc54)c3c2)cc1 (racemic) [ST1765, 1-(5″-benzyloxy-indol-3-yl)-5′-benzyloxy-indo[2,3a]-cycloheptan] |  |  |  |
| 71 | 65.1 | c1ccc(COc2ccc3[nH]cc(C4CCCCc5[nH]c6ccc(OCc7ccccc7)cc6c54)c3c2)cc1 (racemic) [ST1778, 5-(5″-benzyloxy-indol-3-yl)-5′-benzyloxy-indo[2,3a]-cycloheptan.] | 25 |  |  |
